The values below come from patent US10294246B2, “Substituted boronic acids and boronate esters as immunoproteasome inhibitors” (MERCK PATENT GMBH, priority 2014, dated 2019).

For experiment [1], the target named is LMP7 subunit of the immunoproteasome (Homo sapiens (Human), UniProt P28062). The settings on record: Singh et al., Br. J. Hematology 152(2): 155-163; cited from earlier work.
Experiment [2] has as its target human immunoproteasome (LMP7) (Homo sapiens (Human), UniProt P28062). In words: Determination of LMP7 activity (fluorescence intensity assay, Suc-LLVY-AMC). Format: biochemical. The following applies: for Selectivity LMP7 vs Beta5: LMP7 versus Beta5; for IC50: purified human immunoproteasome 0.25 nM, Suc-LLVY-AMC 40 μM. The method in brief:
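0.25 nM purified human immunoproteasome preincubated 20 min at 25 °C with serially diluted compounds in 50 mM Tris pH 7.4, 0.03% SDS, 1 mM EDTA, 1% DMSO. Reaction started with 40 μM Suc-LLVY-AMC, run 60 min at 37 °C. Fluorescence read at ex 350/em 450 nm.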

Experiment [3] has as its target human constitutive proteasome (Beta5) (Homo sapiens (Human), UniProt P28074). In words: Determination of Beta5 activity (fluorescence intensity assay, Suc-LLVY-AMC). Format: biochemical. The following applies: purified human constitutive proteasome 1.25 nM, Suc-LLVY-AMC 40 μM. The method in brief: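 Purified constitutive proteasome (1.25 nM) was preincubated with compounds 20 min at 25 °C in 50 mM Tris pH 7.4, 0.03% SDS, 1 mM EDTA, 1% DMSO. Suc-LLVY-AMC (40 μM) was then added for 60 min at 37 °C. AMC fluorescence was read at ex 350/em 450 nm.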

Structures are written as SMILES.

Take `CC1=C(C(=O)N[C@H](C)C(=O)N[C@@H](Cc2c[nH]c3ccccc23)C(=O)N[C@@H](Cc2ccccc2)C(=O)[C@@]2(C)CO2)Cc2ccccc21` [PR-924]: the “selectivity for the LMP7 subunit of the immunoproteasome” value in experiment [1] was 100 fold.
Take `CCOc1ccc(CC(=O)N[C@@H](Cc2coc3ccccc23)B(O)O)nc1` [Compound No. 13, [(1R)-2-(benzofuran-3-yl)-1-[[2-(5-ethoxy-2-pyridyl)acetyl]amino]-ethyl]boronic acid]: in experiment [2], the “Selectivity LMP7 vs Beta5” value is “+++++ (Selectivity ≥ 100)” and the half-maximal inhibitory concentration (IC50) is less than 50 nM. For the same compound, the IC50 in experiment [3] was in the range of 50 to 500 nM.
Taken in the same sequence, the figures for `O=C(Cc1ccccc1)N[C@@H](C[C@@H]1COc2c(Cl)cccc21)B(O)O` [Compound No. 132, [(1R)-2-[(3S)-7-chloro-2,3-dihydrobenzofuran-3-yl]-1-[(2-phenylacetyl)amino]ethyl]boronic acid] were “+++++ (Selectivity ≥ 100)”, less than 50 nM and 500 to 5000 nM.
`Cc1ccc(C[C@H](NC(=O)Cc2ccc(N3CCCC3=O)cc2)B(O)O)c(C)c1` [Compound No. 43, [(1R)-2-(2,4-dimethylphenyl)-1-[[2-[4-(2-oxopyrrolidin-1-yl)phenyl]-acetyl]amino]ethyl]boronic acid]: in experiment [2], the “Selectivity LMP7 vs Beta5” value is recorded as “+++++ (Selectivity ≥ 100)” and the IC50 is less than 50 nM. The compound further had an IC50 in experiment [3] of 500 to 5000 nM.
For `COc1ccc(OC)c(CC(=O)N[C@@H](Cc2coc3ccccc23)B(O)O)c1` [Compound No. 58, [(1R)-2-(benzofuran-3-yl)-1-[[2-(2,5-dimethoxyphenyl)acetyl]amino]-ethyl]boronic acid], in that order: “++++ (70 ≤ Selectivity < 100)”, less than 50 nM and 50 to 500 nM.
Regarding `O=C(N[C@@H](Cc1coc2ccccc12)B(O)O)[C@H](CO)c1ccccc1` [Compound No. 57, [(1R)-2-(benzofuran-3-yl)-1-[[(2S)-3-hydroxy-2-phenyl-propanoyl]-amino]ethyl]boronic acid], in experiment [2], the “Selectivity LMP7 vs Beta5” value is “+++++ (Selectivity ≥ 100)” and the IC50 was less than 50 nM. Further, the IC50 in experiment [3] was in the range of 500 to 5000 nM.
Consider `Cc1ccc(C[C@H](NC(=O)Cc2c(C)cccc2C)B(O)O)c(C)c1` [Compound No. 35, [(1R)-2-(2,4-dimethylphenyl)-1-[[2-(2,6-dimethylphenyl)acetyl]amino]-ethyl]boronic acid], for which the “Selectivity LMP7 vs Beta5” value in experiment [2] was “++ (10 ≤ Selectivity < 50)”. Further, the values for the half-inhibitory concentration (IC50) in experiment [2] and in experiment [3] were 50 to 500 nM and 500 to 5000 nM, respectively.
Regarding `CO[C@H](C(=O)N[C@@H](Cc1coc2ccccc12)B(O)O)c1ccccc1` [Compound No. 33, [(1R)-2-(benzofuran-3-yl)-1-[[(2S)-2-methoxy-2-phenyl-acetyl]amino]-ethyl]boronic acid], in experiment [2], the “Selectivity LMP7 vs Beta5” value was “+++++ (Selectivity ≥ 100)”. The compound also had an IC50 in experiment [3] of 500 to 5000 nM.
Regarding `CCO[C@@H](C(=O)N[C@@H](CC1COc2c(C)cccc21)B(O)O)c1ccccc1` (stereo partly drawn) [Compound No. 109, [(1R)-1-[[(2R)-2-ethoxy-2-phenyl-acetyl]amino]-2-(7-methyl-2,3-dihydrobenzofuran-3-yl)ethyl]boronic acid], the “Selectivity LMP7 vs Beta5” value in experiment [2] is given as “+++++ (Selectivity ≥ 100)”. Also, the IC50 in experiment [2] was less than 50 nM; in experiment [3] it was more than 5000 nM.
For `COc1cccc(CC(=O)N[C@@H](Cc2coc3ccccc23)B(O)O)n1` [Compound No. 12, [(1R)-2-(benzofuran-3-yl)-1-[[2-(6-methoxy-2-pyridyl)acetyl]amino]-ethyl]boronic acid], in that order: “+++ (50 ≤ Selectivity < 70)”, less than 50 nM and 50 to 500 nM.
In the case of `O=C(Cc1ccccc1OCCCO)N[C@H](Cc1coc2ccccc12)B(O)O` [Compound No. 61, [(1S)-2-(benzofuran-3-yl)-1-[[2-[2-(3-hydroxypropoxy)phenyl]acetyl]-amino]ethyl]boronic acid], in experiment [2], the “Selectivity LMP7 vs Beta5” value is “+++++ (Selectivity ≥ 100)” and the IC50 was in the range of 50 to 500 nM. The compound further yielded an IC50 in experiment [3] of more than 5000 nM.
As to `O=C(Cc1ccc(OCCO)cc1)N[C@@H](Cc1coc2ccccc12)B(O)O` [Compound No. 39, [(1R)-2-(benzofuran-3-yl)-1-[[2-[4-(2-hydroxyethoxy)phenyl]acetyl]-amino]ethyl]boronic acid], in experiment [2], the “Selectivity LMP7 vs Beta5” value is recorded as “+++++ (Selectivity ≥ 100)” and the IC50 was less than 50 nM. The IC50 in experiment [3] was in the range of 50 to 500 nM.
For `COc1ccc(CC(=O)N[C@@H](C[C@@H]2COc3ccccc32)B(O)O)cc1` [Compound No. 114, [(1R)-2-[(3S)-2,3-dihydrobenzofuran-3-yl]-1-[[2-(4-methoxyphenyl)-acetyl]amino]ethyl]boronic acid], in that order: “+++++ (Selectivity ≥ 100)”, less than 50 nM and 500 to 5000 nM.
On to `COc1ccc(CCC(=O)N[C@@H](Cc2coc3c(C)c(C)ccc23)B(O)O)nc1` [Compound No. 95, [(1R)-2-(6,7-dimethylbenzofuran-3-yl)-1-[3-(5-methoxy-2-pyridyl)propanoylamino]ethyl]boronic acid], for which, in experiment [2], the “Selectivity LMP7 vs Beta5” value was “+++++ (Selectivity ≥ 100)” and the concentration for half-maximal inhibition (IC50) was less than 50 nM. In experiment [3], the IC50 is 500 to 5000 nM.
As for `COc1ccc(OCCC(=O)N[C@@H](Cc2ccc(C)cc2)B(O)O)cc1` [Compound No. 5, [(1R)-1-[3-(4-methoxyphenoxy)propanoylamino]-2-(p-tolyl)ethyl]boronic acid], in experiment [2], the “Selectivity LMP7 vs Beta5” value is on record as “++ (10 ≤ Selectivity < 50)” and the IC50 was less than 50 nM. Moreover, the half-maximal inhibitory concentration (IC50) in experiment [3] lay in the range of 50 to 500 nM.
On to `N#Cc1ccccc1CC(=O)N[C@@H](C[C@H]1COc2c(Cl)cccc21)B(O)O` [Compound No. 135, [(1R)-2-[(3R)-7-chloro-2,3-dihydrobenzofuran-3-yl]-1-[[2-(2-cyanophenyl)acetyl]amino]ethyl]boronic acid], for which, in experiment [2], the “Selectivity LMP7 vs Beta5” value is “+++++ (Selectivity ≥ 100)” and the IC50 lay in the range of 50 to 500 nM. Moreover, the IC50 in experiment [3] is more than 5000 nM.
On to `Cc1ccc(C[C@H](NC(=O)Cc2ccc(NS(C)(=O)=O)cc2)B(O)O)c(C)c1` [Compound No. 46, [(1R)-2-(2,4-dimethylphenyl)-1-[[2-[4-(methanesulfonamido)phenyl]-acetyl]amino]ethyl]boronic acid], for which, in experiment [2], the “Selectivity LMP7 vs Beta5” value was “++++ (70 ≤ Selectivity < 100)” and the IC50 lay within 50 to 500 nM. This compound returned an IC50 in experiment [3] of more than 5000 nM.
